Results from patent US8563520B2, “Treatment of ocular disease with inhibitors of alpha2 macroglobulin protein” (McGill University, priority 2005, dated 2013).
“Also recorded” adds a separate entry of the source. Read-outs that look alike come from different tables or passages of the source.

Legend:
rat eyes = details: for IOP of normal eyes: daily topical betaxolol 0.5% eye drops; for IOP of cauterized (high IOP) eyes: daily topical betaxolol 0.5% eye drops from day 3 post-cauterization
Experimental: Episcleral cauterization of rat eyes was performed under anesthesia. After a conjunctival incision, extra-ocular muscles were isolated and the major limbal draining veins were identified based on location, relative immobility, larger caliber and branching pattern. Cauterization of three episcleral vessels in the right eye was done with a 30″ cautery tip. The left eye in each animal was used as normal IOP control after sham-surgery (conjunctival incisions with no cauterization).
IOP was gauged using a Tonopen XL tonometer under light anesthesia (intramuscular injection of ketamine, […]; xylazine, 0.32 mg/kg; and acepromazine, 0.4 mg/kg).
A selective β-blocker (betaxolol 0.5%, Alcon) was applied daily as eye drops.

[1] = tested on: retinal ganglion cells (RGCs); experiment: RGC loss in high IOP (cauterization) glaucoma model, retrograde RGC labeling and counting; assay type: in vivo, rat; details: for RGC loss (% at day 42 vs normal): 14 days high, 28 normal IOP
Experimental: Episcleral cauterization of rat eyes was performed under anesthesia.
RGCs were labeled with 3% DII (1,1-dioctadecyl-3,3,3,3-tetramethylindocarbocyanine perchlorate) or with 3% fluorogold. Briefly, Wistar rats were anesthetized and their heads were mounted in a stereotactic apparatus.
7 days after dye injection, the vasculature of the rats were perfused-fixed (transcardiac perfusion in phosphate-buffer (PB), followed by 4% PFA in PB) and the eyes were enucleated. After post-fixing for 1 hour cuts were made through the sclera to form a Maltese cross pattern and retinas detached from the eyecup at the optic nerve head. The retinas were flat-mounted on glass slides (vitreous side up) air-dried and cover-slipped with mounting medium (Molecular Probes). The retinas were observed under fluorescence microscopy (Zeiss). […] RGCs were recognized in flat mounted retinas by the presence of retrogradely transported dye and by morphology. RGCs in all 4 quadrants (16 images per retina) were averaged and presented as […] of area counted.
A puncture was made on the eye wall with a 30 G needle to allow the entrance of a cannula in the […]. A glass cannula (10 μm thickness), prepared with an upright microelectrode puller (Narishige) was connected through plastic tubing to a Hamilton syringe to dispense solutions of anti-α2 macroglobulin rabbit antibody (Calbiochem), control PBS, or control rabbit antibody (Sigma). Injections were done at day 14 and 21 post-surgery (in sham-operated control eyes with normal IOP, and cauterized eyes with high IOP). The intraocular injections were in 2 μl volumes containing a total of 2 μg antibody. This amount was selected because in quantitative western blots of whole rat retina there was an estimated total of ˜1 μg of α2 macroglobulin in glaucomatous eyes (data not shown). Ocular pressure was not affected by intraocular injections, the high IOP eyes remained high IOP and the normal IOP eyes remained normal IOP (data not shown).
A second paradigm was used to confirm the role of α2 macroglobulin in RGC death. Neutralizing antibodies to α2 macroglobulin were injected intraocularly in glaucomatous eyes with high IOP to determine whether RGC death could be prevented. The experimental model was to induce high IOP for 14 days to trigger α2 macroglobulin over-expression and RGC damage, before the initiation of α2 macroglobulin neutralizing therapy. Neutralization was used as single therapy, or was combined with daily betaxolol treatment to better reflect the clinical setting in which glaucoma patients would be simultaneously treated with pressure-lowering drugs. Neutralizing antibodies were given at days 14 and 21 after cauterization, and surviving RGCs, identified by retrograde labeling, were counted at day 42 post-surgery. […]

retinal mRNA = details: day 28
Experimental: RNA preparation. Total RNA was isolated from retinal tissue using TRIZOL® (Life Technologies). Three retinas belonging to the same experimental group were pooled for the gene microarray experiment. RNA was then further purified using the RNAEASY® (QIAGEN®). The integrity of the RNA samples was assessed by running aliquots on RNA 6000 Nano LabChip (Agilent) using the 2100 bioanalyzer (Agilent).
Probe synthesis, hybridization and scanning were done according to Affymetrix protocol, as a service at the McGill University and Genome Quebec Innovation Centre. For the experiments shown, Rat U34 Genome Arrays (8,700 genes, Affymetrix) were used. Briefly, RNA samples were first converted to double stranded cDNA (T7-(dT)24 primer (Genset)). Then the cDNAs were purified and used to generate the biotinylated cRNA probes (Bioarray High Yield RNA transcript labeling kit (Enzo diagnostics)). An aliquot of the purified cRNA was analyzed on RNA 6000 Nano LabChip (Agilent) to verify the integrity and size distribution. Immediately after hybridization the chip was placed in the Affymetrix GeneChip Fluidics Station 400 (Affymetrix). In total, 10 low-stringency washes (63 SSPE, 0.01% Tween-20, 0.005% Antifoam) and 4 high-stringency washes (100 mM MES, 0.1 M NaCl, 0.01% Tween-20, 50 C) were performed (all reagents from Sigma). The array was then incubated with SAPE® (streptavidin/phycoerythrin stain, Molecular Probes), followed by 10 low stringency washes. The array was incubated with biotinylated anti-streptavidin antibody (Vector Laboratories) and washed again with 15 low stringency washes. Specifically bound probe was detected by placing the array in the Agilent GeneArray scanner 2500 (Affymetrix). The scanned images were analyzed using the Microarray Analysis Suite version 5.0 (Affymetrix). Statistical analyses were done with the help of the Kensington Discovery Edition version 1.8 (Inforsense).
Retinas were carefully dissected out to insure that only retinal mRNAs were prepared for gene microarray studies. Samples were obtained from sham operated eyes (normal IOP control, Group 1), eyes at 28 days high IOP (test, Group 2), and eyes 28 days after cauterization plus daily betaxolol treatment from day 3 onwards (Group 3). […] Samples from each of these groups (n=4 each group) were studied by gene microarrays (see FIG. 2 flowchart). A cutoff of 2.5-fold was used to afford significance (p<0.05).

α2 macroglobulin mRNA = details: betaxolol treatment; still significantly increased over normal IOP
Source text: Retinas were dissected from eyes treated as indicated (n=3) and mRNAs were purified and studied by Northern blotting with labeled α2 macroclobulin or actin (control) probes.

**Q.** `CC(C)NCC(O)COc1ccc(CCOCC2CC2)cc1` (stereo not drawn) [betaxolol] was tested. Which “IOP of normal eyes” value (rat eyes) did it give?
**A.** no significant effect on normal IOP

**Q.** And the “IOP of cauterized (high IOP) eyes” value (rat eyes)?
**A.** full normalization of IOP after 3 days

**Q.** What about the “IOP of cauterized (high IOP) eyes” value (rat eyes; listed as Betaxolol) of the same compound?
**A.** fully normalized high IOP from day 7 onward

**Q.** What about the “IOP of normal eyes” value (rat eyes; listed as Betaxolol) of the same compound?
**A.** no significant effect

**Q.** What about the “RGC loss (% at day 42 vs normal)” value ([1]; daily betaxolol days 14-42, no Ab injection) of the same compound?
**A.** 19±1%

**Q.** And the “RGC loss (% at day 42 vs normal)” value ([1]; daily betaxolol days 14-42, no Ab injection, listed as Betaxolol)?
**A.** 19 ± 1%

**Q.** And the “RGC loss (% at day 42 vs normal)” value ([1]; daily betaxolol days 14-42 plus control serum days 14 and 21)?
**A.** 21 ± 5%

**Q.** And the “rate of RGC loss” value ([1]; daily betaxolol, IOP normalized from day 7 onwards)?
**A.** reduces the rate of RGC loss, but does not prevent it; also recorded: reduced the average rate of RGC loss, but did not prevent it

**Q.** And the “Relative Change versus non-cauterized eyes, cauterized + betaxolol B” value (retinal mRNA; gene ATPase alpha-1 subunit (M74494))?
**A.** 1.5

**Q.** And the “Relative Change versus non-cauterized eyes, cauterized + betaxolol B” value (retinal mRNA; gene Amphiphysin 1 (Y13381))?
**A.** −1.1

**Q.** And the “Relative Change versus non-cauterized eyes, cauterized + betaxolol B” value (retinal mRNA; gene Amyloid precursor-like protein 2 (X77934))?
**A.** 1.1

**Q.** And the “Relative Change versus non-cauterized eyes, cauterized + betaxolol B” value (retinal mRNA; gene Asparagine synthase (U07201))?
**A.** −1.1

**Q.** What about the “Relative Change versus non-cauterized eyes, cauterized + betaxolol B” value (retinal mRNA; gene B-2 arylamine N-acetyltransferase (U01347)) of the same compound?
**A.** 1.5

**Q.** What about the “Relative Change versus non-cauterized eyes, cauterized + betaxolol B” value (retinal mRNA; gene Beta A3/A1 crystallin (X15143)) of the same compound?
**A.** −1.1

**Q.** And the “Relative Change versus non-cauterized eyes, cauterized + betaxolol B” value (retinal mRNA; gene Clone RKIAS43 (AA892520))?
**A.** 2.9

**Q.** And the “Relative Change versus non-cauterized eyes, cauterized + betaxolol B” value (retinal mRNA; gene Crybb2 (X83671))?
**A.** −1.0

**Q.** What about the “Relative Change versus non-cauterized eyes, cauterized + betaxolol B” value (retinal mRNA; gene Cyclic nucleotide-gated cation channel (AJ000515)) of the same compound?
**A.** 3.4

**Q.** And the “Relative Change versus non-cauterized eyes, cauterized + betaxolol B” value (retinal mRNA; gene Gial fibrillary acidic protein (AF028784))?
**A.** 1.4

**Q.** And the “Relative Change versus non-cauterized eyes, cauterized + betaxolol B” value (retinal mRNA; gene Gzα (U77483))?
**A.** 1.1

**Q.** What about the “Relative Change versus non-cauterized eyes, cauterized + betaxolol B” value (retinal mRNA; gene Helicase RAP 30 (L01267)) of the same compound?
**A.** 1.2

**Q.** What about the “Relative Change versus non-cauterized eyes, cauterized + betaxolol B” value (retinal mRNA; gene PSD-95/SAP90-asociated protein-4 (U67140)) of the same compound?
**A.** −1.0

**Q.** What about the “Relative Change versus non-cauterized eyes, cauterized + betaxolol B” value (retinal mRNA; gene Protein phosphatase 1 gamma (S78217)) of the same compound?
**A.** 2.5

**Q.** What about the “Relative Change versus non-cauterized eyes, cauterized + betaxolol B” value (retinal mRNA; gene RBCK (AB011369)) of the same compound?
**A.** 1.3

**Q.** And the “Relative Change versus non-cauterized eyes, cauterized + betaxolol B” value (retinal mRNA; gene Ras-related p23 (X12535))?
**A.** 1.1

**Q.** What about the “Relative Change versus non-cauterized eyes, cauterized + betaxolol B” value (retinal mRNA; gene Reggie1-1 (AF023302)) of the same compound?
**A.** 1.8

**Q.** What about the “Relative Change versus non-cauterized eyes, cauterized + betaxolol B” value (retinal mRNA; gene Ribosomal protein L23-related product (U62635)) of the same compound?
**A.** 3.8

**Q.** And the “Relative Change versus non-cauterized eyes, cauterized + betaxolol B” value (retinal mRNA; gene S-adenosylmethionine synthase (J05571))?
**A.** 1.1

**Q.** What about the “Relative Change versus non-cauterized eyes, cauterized + betaxolol B” value (retinal mRNA; gene SPARC (U75928)) of the same compound?
**A.** 1.9

**Q.** What about the “Relative Change versus non-cauterized eyes, cauterized + betaxolol B” value (retinal mRNA; gene cDNA clone rx00382 (AI639155)) of the same compound?
**A.** 7.2

**Q.** What about the “Relative Change versus non-cauterized eyes, cauterized + betaxolol B” value (retinal mRNA; gene cDNA clone rx01295 (AI639375)) of the same compound?
**A.** 4.8

**Q.** What about the “Relative Change versus non-cauterized eyes, cauterized + betaxolol B” value (retinal mRNA; gene cDNA clone rx05013 (AI639441)) of the same compound?
**A.** 2.8

**Q.** And the “Relative Change versus non-cauterized eyes, cauterized + betaxolol B” value (retinal mRNA; gene α2 macroglobulin (M23566))?
**A.** 5.6

**Q.** What about the “increase of retinal α2 macroglobulin mRNA at day 28 of high IOP” value (α2 macroglobulin mRNA) of the same compound?
**A.** attenuated slightly
